From ChEMBL document CHEMBL2384904, “Discovery of potent, selective, bioavailable phosphodiesterase 2 (PDE2) inhibitors active in an osteoarthritis pain model, part I: transformation of selective pyrazolodiazepinone phosphodiesterase 4 (PDE4) inhibitors into selective PDE2 inhibitors” (Bioorg Med Chem Lett, 2013)
pIC50: −log10 of the molar value.

Experiments:
[1] = molecular target: Phosphodiesterase 4 (Homo sapiens, UniProt P27815+Q08499+Q07343+Q08493); test: Inhibition of PDE4 (unknown origin); type: protein assay
[2] = Half life in po dosed rat; type: ADME, organism-based; details: in vivo
[3] = molecular target: Phosphodiesterase 6 (Homo sapiens) (UniProt Q13956+P18545+P35913+O43924+P16499+P51160); test: Inhibition of PDE6 (unknown origin); type: protein assay
[4] = molecular target: Phosphodiesterase 3 (Homo sapiens) (UniProt Q14432+Q13370); test: Inhibition of PDE3 (unknown origin); type: protein assay
[5] = molecular target: Phosphodiesterase 7 (Homo sapiens) (UniProt Q13946+Q9NP56); test: Inhibition of PDE7 (unknown origin); type: protein assay
[6] = Bioavailability in rat; type: ADME, organism-based; details: in vivo
[7] = species: Homo sapiens; test: Selectivity ratio of IC50 for PDE4 (unknown origin) to IC50 for PDE2 (unknown origin)
[8] = molecular target: Phosphodiesterase 8 (Homo sapiens) (UniProt O95263+O60658); test: Inhibition of PDE8 (unknown origin); type: protein assay
[9] = Half life in iv dosed rat; type: ADME, organism-based; details: in vivo
[10] = molecular target: Phosphodiesterase 1 (Homo sapiens) (UniProt P54750+Q01064+Q14123); test: Inhibition of PDE1 (unknown origin); type: protein assay
[11] = molecular target: High affinity cGMP-specific 3',5'-cyclic phosphodiesterase 9A (Homo sapiens) (UniProt O76083); test: Inhibition of PDE9 (unknown origin)
[12] = molecular target: cGMP-dependent 3',5'-cyclic phosphodiesterase (Homo sapiens, UniProt O00408); test: Inhibition of PDE2 (unknown origin)
[13] = molecular target: cAMP and cAMP-inhibited cGMP 3',5'-cyclic phosphodiesterase 10A (Homo sapiens) (UniProt Q9Y233); test: Inhibition of PDE10 (unknown origin)
[14] = molecular target: Dual 3',5'-cyclic-AMP and -GMP phosphodiesterase 11A (Homo sapiens) (UniProt Q9HCR9); test: Inhibition of PDE11 (unknown origin)
[15] = molecular target: cGMP-specific 3',5'-cyclic phosphodiesterase (Homo sapiens) (UniProt O76074); test: Inhibition of PDE5 (unknown origin)
[16] = in vitro; details: human, liver microsomes
[17] = molecular target: 3',5'-cyclic-AMP phosphodiesterase 4B (Homo sapiens, UniProt Q07343); test: Inhibition of PDE4B (unknown origin)
[18] = species: Homo sapiens; test: Selectivity ratio of IC50 for PDE4B (unknown origin) to IC50 for PDE2 (unknown origin)

3',5'-cyclic-AMP phosphodiesterase 4B, sequence (Q07343 whole entry): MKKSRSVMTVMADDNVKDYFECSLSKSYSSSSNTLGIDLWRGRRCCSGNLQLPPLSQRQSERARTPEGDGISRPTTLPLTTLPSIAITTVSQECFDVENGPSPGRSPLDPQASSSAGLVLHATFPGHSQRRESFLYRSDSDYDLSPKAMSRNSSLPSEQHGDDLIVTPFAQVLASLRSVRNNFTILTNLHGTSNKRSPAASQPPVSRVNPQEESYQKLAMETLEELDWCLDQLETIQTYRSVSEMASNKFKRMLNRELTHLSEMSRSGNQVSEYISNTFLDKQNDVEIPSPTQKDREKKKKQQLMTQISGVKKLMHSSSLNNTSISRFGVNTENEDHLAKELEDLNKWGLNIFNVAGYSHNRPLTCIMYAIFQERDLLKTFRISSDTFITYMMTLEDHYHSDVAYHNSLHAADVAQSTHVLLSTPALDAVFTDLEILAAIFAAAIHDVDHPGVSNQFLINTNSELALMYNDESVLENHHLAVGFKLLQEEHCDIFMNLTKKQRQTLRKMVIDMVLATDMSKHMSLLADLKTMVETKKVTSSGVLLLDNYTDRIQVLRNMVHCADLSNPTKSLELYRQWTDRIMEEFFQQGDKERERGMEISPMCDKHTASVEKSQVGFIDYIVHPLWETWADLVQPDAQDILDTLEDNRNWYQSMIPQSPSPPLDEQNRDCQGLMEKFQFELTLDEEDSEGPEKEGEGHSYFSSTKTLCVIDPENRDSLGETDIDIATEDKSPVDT
cGMP-dependent 3',5'-cyclic phosphodiesterase, sequence (O00408 whole entry): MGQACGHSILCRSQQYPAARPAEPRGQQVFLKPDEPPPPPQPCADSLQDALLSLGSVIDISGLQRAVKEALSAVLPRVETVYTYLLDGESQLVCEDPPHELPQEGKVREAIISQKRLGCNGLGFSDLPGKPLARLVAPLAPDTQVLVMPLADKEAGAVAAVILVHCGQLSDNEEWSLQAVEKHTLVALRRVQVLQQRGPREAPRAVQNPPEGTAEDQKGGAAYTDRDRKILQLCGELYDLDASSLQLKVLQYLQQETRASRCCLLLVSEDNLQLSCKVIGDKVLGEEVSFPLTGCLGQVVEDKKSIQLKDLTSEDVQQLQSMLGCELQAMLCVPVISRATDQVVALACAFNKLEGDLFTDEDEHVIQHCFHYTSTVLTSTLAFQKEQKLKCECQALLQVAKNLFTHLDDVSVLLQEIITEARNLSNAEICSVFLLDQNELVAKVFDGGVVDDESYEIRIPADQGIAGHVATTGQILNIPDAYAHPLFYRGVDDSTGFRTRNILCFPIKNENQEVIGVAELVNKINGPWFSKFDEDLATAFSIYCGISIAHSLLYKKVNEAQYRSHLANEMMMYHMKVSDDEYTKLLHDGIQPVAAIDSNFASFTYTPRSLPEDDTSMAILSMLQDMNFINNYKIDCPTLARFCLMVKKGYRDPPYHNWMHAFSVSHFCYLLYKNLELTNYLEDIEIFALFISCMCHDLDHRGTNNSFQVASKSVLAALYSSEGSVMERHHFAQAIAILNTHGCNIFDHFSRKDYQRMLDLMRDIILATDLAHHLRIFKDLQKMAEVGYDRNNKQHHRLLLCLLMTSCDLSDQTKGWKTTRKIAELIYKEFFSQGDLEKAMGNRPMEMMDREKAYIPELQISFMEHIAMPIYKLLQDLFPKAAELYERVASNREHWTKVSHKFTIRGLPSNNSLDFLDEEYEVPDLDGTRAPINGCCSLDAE
Phosphodiesterase 7 (Homo sapiens), sequence (Q13946 whole entry, looked up): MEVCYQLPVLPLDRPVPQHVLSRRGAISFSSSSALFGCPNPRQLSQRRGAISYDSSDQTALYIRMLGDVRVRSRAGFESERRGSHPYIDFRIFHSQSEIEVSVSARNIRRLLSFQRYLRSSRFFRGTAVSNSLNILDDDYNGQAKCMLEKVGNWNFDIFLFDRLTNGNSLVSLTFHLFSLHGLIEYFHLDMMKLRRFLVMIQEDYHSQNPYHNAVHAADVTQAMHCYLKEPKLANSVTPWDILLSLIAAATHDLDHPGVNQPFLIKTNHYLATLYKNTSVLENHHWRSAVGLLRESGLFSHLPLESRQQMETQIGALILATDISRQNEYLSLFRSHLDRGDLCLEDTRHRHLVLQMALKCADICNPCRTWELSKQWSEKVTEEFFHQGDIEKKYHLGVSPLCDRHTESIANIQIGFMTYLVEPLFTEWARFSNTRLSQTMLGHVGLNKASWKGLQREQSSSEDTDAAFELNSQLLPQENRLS
Phosphodiesterase 7 (Homo sapiens), sequence (Q9NP56 whole entry, looked up): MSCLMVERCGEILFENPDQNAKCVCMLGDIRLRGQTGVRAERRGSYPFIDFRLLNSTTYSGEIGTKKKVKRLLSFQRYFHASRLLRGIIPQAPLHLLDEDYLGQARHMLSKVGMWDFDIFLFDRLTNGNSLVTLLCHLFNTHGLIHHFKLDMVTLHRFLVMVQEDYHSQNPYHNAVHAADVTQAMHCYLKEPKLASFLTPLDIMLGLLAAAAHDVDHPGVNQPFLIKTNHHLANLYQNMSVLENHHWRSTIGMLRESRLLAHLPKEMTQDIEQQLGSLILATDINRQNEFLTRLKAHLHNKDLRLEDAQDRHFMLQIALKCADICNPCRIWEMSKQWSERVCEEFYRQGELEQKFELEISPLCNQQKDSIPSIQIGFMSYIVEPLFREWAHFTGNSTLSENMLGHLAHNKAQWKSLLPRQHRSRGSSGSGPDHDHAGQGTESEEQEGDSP
Dual 3',5'-cyclic-AMP and -GMP phosphodiesterase 11A (Homo sapiens), sequence (Q9HCR9 whole entry, looked up): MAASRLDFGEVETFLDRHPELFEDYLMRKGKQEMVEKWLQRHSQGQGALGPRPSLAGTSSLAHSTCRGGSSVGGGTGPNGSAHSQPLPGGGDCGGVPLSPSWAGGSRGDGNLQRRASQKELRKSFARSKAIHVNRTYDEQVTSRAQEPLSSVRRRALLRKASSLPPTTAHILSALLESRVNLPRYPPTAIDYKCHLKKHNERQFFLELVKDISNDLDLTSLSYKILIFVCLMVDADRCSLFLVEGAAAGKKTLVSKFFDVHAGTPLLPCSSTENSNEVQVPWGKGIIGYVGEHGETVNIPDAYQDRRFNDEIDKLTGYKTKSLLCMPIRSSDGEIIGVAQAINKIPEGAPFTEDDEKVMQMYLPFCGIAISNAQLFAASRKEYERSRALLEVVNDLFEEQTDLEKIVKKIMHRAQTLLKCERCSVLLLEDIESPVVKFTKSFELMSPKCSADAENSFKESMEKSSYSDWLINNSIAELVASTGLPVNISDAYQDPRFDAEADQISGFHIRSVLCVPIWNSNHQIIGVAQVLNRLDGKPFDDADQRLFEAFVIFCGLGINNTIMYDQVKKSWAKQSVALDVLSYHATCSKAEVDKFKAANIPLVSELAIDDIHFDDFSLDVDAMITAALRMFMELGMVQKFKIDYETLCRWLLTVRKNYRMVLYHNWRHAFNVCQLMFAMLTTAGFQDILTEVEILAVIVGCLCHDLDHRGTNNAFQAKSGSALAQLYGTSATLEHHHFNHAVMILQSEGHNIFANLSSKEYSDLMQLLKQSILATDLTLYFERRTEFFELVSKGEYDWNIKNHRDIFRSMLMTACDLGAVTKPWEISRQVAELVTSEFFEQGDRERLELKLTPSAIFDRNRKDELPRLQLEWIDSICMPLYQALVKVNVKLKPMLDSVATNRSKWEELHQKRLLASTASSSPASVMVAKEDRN
cAMP and cAMP-inhibited cGMP 3',5'-cyclic phosphodiesterase 10A (Homo sapiens), sequence (Q9Y233 whole entry): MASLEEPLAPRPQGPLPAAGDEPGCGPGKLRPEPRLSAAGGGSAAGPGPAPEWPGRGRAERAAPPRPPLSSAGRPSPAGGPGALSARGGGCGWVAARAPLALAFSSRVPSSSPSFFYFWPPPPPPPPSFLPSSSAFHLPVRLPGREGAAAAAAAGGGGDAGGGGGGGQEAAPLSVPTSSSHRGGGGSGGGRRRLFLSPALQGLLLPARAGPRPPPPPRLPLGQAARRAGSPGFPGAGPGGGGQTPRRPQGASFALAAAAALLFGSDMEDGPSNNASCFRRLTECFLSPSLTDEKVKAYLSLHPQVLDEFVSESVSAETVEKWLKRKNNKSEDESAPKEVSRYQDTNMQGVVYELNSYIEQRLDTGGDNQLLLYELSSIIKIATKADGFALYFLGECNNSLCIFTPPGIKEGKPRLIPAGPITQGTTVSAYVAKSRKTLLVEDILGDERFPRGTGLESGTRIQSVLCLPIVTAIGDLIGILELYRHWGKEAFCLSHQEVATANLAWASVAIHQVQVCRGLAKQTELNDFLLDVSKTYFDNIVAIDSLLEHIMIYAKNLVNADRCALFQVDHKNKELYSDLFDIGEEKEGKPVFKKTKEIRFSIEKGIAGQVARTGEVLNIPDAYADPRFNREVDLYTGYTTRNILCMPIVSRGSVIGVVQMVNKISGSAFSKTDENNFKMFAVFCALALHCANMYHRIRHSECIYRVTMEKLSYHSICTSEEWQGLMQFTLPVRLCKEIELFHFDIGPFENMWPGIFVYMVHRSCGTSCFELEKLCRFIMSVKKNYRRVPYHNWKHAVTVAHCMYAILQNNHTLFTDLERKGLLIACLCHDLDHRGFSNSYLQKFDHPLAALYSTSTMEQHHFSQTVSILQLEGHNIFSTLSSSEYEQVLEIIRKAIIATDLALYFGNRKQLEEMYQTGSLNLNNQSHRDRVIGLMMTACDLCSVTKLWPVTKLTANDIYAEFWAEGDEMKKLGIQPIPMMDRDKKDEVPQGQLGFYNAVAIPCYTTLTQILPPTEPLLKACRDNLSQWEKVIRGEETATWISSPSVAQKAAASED

CCC(CC)c1nn(CC)c2c1N=C(c1ccc(C(=O)O)cc1)CNC2=O
IC50 [1]: 1.2 nM | half-life [2]: 300 min | INH [3]: > 5 µM | INH [4]: > 5 µM | INH [5]: > 5 µM | bioavailability [6]: 80% | Ratio IC50 [7]: 0.0015 | INH [8]: > 5 µM | half-life [9]: 114 min | INH [10]: > 5 µM | INH [11]: > 5 µM | pIC50 [12]: 6.08 | INH [13]: > 5 µM | INH [14]: > 5 µM | INH [15]: > 5 µM

CC(C)c1nccn1-c1ccc(C2=Nc3c(C(C)(C)C)nn(CCO)c3C(=O)NC2)cc1
half-life [16]: 12 min | pIC50 [17]: 6.48 | pIC50 [12]: 7.01 | Ratio IC50 [18]: 3

CCC(CC)c1nn(CCCO)c2c1N=C(c1ccccc1)CNC2=O
half-life [16]: 36 min

CC(C)(C)c1nn(CCO)c2c1N=C(c1ccc(F)cc1)CNC2=O
IC50 [1]: 31 nM | Ratio IC50 [7]: 0.12 | pIC50 [12]: 6.59

CCC(CC)c1nn(CCCO)c2c1N=C(c1ccc(-n3ccnc3C)cc1)CNC2=O
IC50 [1]: 10800 nM | half-life [16]: 6 min | Ratio IC50 [7]: 33 | pIC50 [12]: 6.48

COc1ccc(Cc2nn3c([C@@H](CCc4ccccc4)[C@@H](C)O)nc(C)c3c(=O)[nH]2)cc1OO
pIC50 [12]: 8.33

CCC(CC)c1nn(CCO)c2c1N=C(c1ccccc1)CNC2=O
IC50 [1]: 76 nM | half-life [16]: 20 min | Ratio IC50 [7]: 0.7 | pIC50 [12]: 6.99

CCC(C)(C)c1nn(CCO)c2c1N=C(c1ccc(-n3cc(C)nc3C)cc1)CNC2=O
half-life [16]: 9 min | pIC50 [17]: 5.71 | pIC50 [12]: 6.98 | Ratio IC50 [18]: 19

CCC(CC)c1nn(CCCO)c2c1N=C(c1ccc(OC)c(OC)c1)CNC2=O
IC50 [1]: 365 nM | half-life [16]: 44 min | Ratio IC50 [7]: 4 | pIC50 [12]: 7.03

CCC(CC)c1nn(CCO)c2c1N=C(c1ccc(-n3ccnc3C)cc1)CNC2=O
IC50 [1]: 538 nM | half-life [16]: 5 min | pIC50 [17]: 6.23 | Ratio IC50 [7]: 11 | pIC50 [12]: 7.27 | Ratio IC50 [18]: 11

CCCCCC[C@@H]([C@@H](C)O)n1cnc2c(N)ncnc21 (relative stereo) [EHNA]
pIC50 [12]: 6.10

CCC(C)(C)c1nn(CCO)c2c1N=C(c1ccc(-n3ccnc3C)cc1)CNC2=O
half-life [16]: 7 min | pIC50 [17]: 6.42 | pIC50 [12]: 7.35 | Ratio IC50 [18]: 8

CCC(CC)c1nn(CCO)c2c1N=C(c1ccc(OC)c(OC)c1)CNC2=O
IC50 [1]: 48 nM | half-life [16]: 23 min | Ratio IC50 [7]: 2 | pIC50 [12]: 7.64
